{
  "source": "paper PMC6277767",
  "about": "“Broad and Region-Specific Impacts of the Synthetic Cannabinoid CP 55,940 in Adolescent and Adult Female Mouse Brains” (Frontiers in Molecular Neuroscience, 2018)",
  "origin": "cited, not measured here",
  "key": {"CB1": {"system": "CB1", "conditions": "cited from earlier work"}, "rats": {"system": "rats", "parameters": "method as in Higuera-Matas et al., 2010", "conditions": "ref Higuera-Matas et al., 2010, cited from earlier work"}},
  "data": [
    {"compound": "CCCCCCC(C)(C)c1ccc([C@@H]2C[C@H](O)CC[C@H]2CCCO)c(O)c1", "note": "[CP 55,940]", "values": [
      {"measurement": "potency relative to THC", "setting": "CB1; cannabinoid receptors, ref Showalter et al., 1996, Besnard et al., 2012", "result": "~10", "unit": "fold"},
      {"measurement": "EC50", "setting": "CB1; ref Brents et al., 2011, read-out: EC50, stimulated G-protein binding at CB1", "result": 3.4, "unit": "nM"},
      {"measurement": "cocaine self-administration at PND 75 vs vehicle", "setting": "rats; female rats, daily 0.4 mg/kg PND 28-38", "result": "significantly more cocaine"},
      {"measurement": "DAT in the caudate-putamen", "setting": "rats; rats, CP during adolescence", "result": "upregulated"},
      {"measurement": "dopamine D2 receptor levels in the HIPP", "setting": "rats; rats, CP during adolescence", "result": "decreased"}
    ]}
  ]
}
